Source: US7884067B2, “Peptides derived from cadherin and methods of use thereof” (Mount Sinai School of Medicine of New York University, priority 2001, dated 2011)

Legend:
E-cadherin = E-cadherin processing in E-cadherin-transfected PS1+/+ fibroblasts (Western blot, C36); assay type: cell-based, mouse; conditions: L-685,458 0.5 μM, 6 hours, compared to non-treated controls
Protocol: Cell Cultures and transfections. Cells were grown in Dulbecco's Modified Eagle Medium (DMEM) plus 10% fetal bovine serum, penicillin and streptomycin in 5% CO2 at 37° C. Fibroblast cell lines derived either from wild-type (WT) (PS1+/+) or PS1 knock-out (PS1−/−) mice were stably transfected with human E-cadherin as described by Baki et al., (2001). A431 cells were from American Type Culture Collection. Stable transfectants of PS1 cDNA in HEK293 cells were prepared as described by Georgakopoulos et al., (1999). A431D cells stably transfected with wild-type or GGG759-761AAA mutant E-cadherin were provided by Dr. A. B. Reynolds.
Immunoprecipitations (IPs), immunoblotting, immunofluorescence and confocal microscopy. For WB analysis of cell extracts, cells were washed with PBS and then solubilized in RIPA buffer. For IPs cells were solubilized in Hepes buffer (25 mM Hepes [pH 7.4], 150 mM NaCl, 1× Complete protease inhibitor cocktail, Roche) containing 1% digitonin (IPs with I-R222 and PI-R222 antibodies) or 1% Triton X-100 (IPs with β-catenin and desmoglein antibodies). Following centrifugation at 17,000×g for 10 min, supernatants (1 mg protein) were pre-cleared with protein A- or protein G-agarose (Pierce) for 2 hours. […] IPs were washed with Hepes buffer containing either 1% digitonin or 1% Triton X-100 and analyzed by SDS-PAGE. […]

A431 cells = assay: Laser scanning confocal microscopy of ionomycin-induced cell-cell dissociation; assay type: cell-based, human; conditions: 30 minutes pre-incubation with L-685,458, then ionomycin 45 minutes
Protocol: Immunoprecipitations (IPs), immunoblotting, immunofluorescence and confocal microscopy. For WB analysis of cell extracts, cells were washed with PBS and then solubilized in RIPA buffer. For IPs cells were solubilized in Hepes buffer (25 mM Hepes [pH 7.4], 150 mM NaCl, 1× Complete protease inhibitor cocktail, Roche) containing 1% digitonin (IPs with I-R222 and PI-R222 antibodies) or 1% Triton X-100 (IPs with β-catenin and desmoglein antibodies). Following centrifugation at 17,000×g for 10 min, supernatants (1 mg protein) were pre-cleared with protein A- or protein G-agarose (Pierce) for 2 hours. Supernatants were then incubated with antibodies overnight at 4° C. and treated for 2 hours with protein A-agarose (polyclonal antibodies) or with protein G-agarose (monoclonal antibodies). IPs were washed with Hepes buffer containing either 1% digitonin or 1% Triton X-100 and analyzed by SDS-PAGE. Immunofluorescence and confocal microscopy was performed as described by Georgakopoulos et al., (1999). Briefly, cells were plated on 22×22 mm collagen-coated glass coverslips, fixed in cold methanol for 10 min at −20° C. Following washing in TBS (25 mM Tris-HCl [pH 7.4], 150 mM NaCl), cells were treated with 10% goat serum in SuperBlock (Pierce) for 1 hour, incubated overnight with primary antibody (1:100), washed in TBS and then were incubated with species specific Alexa Fluor™ secondary antibody conjugates (Molecular Probes). Cells were washed with TBS, mounted with Prolong antifade kit (Molecular Probes), and photographed on a Leica confocal laser scanning microscope.
The PS1/γ-secretase role in the disassembly of CAJ was further examined using laser scanning confocal microscopy (LSCM). A431 cells were pre-incubated for 30 minutes in the absence or presence of L-685,458 and then treated for 45 minutes with ionomycin. Following the ionomycin-induced cell-cell dissociation, the distribution of PS1, E-cadherin, β-catenin and α-catenin was analyzed by LSCM using the constant detector setting. […]

CBP = biological target: T1, CBP (Mus musculus, UniProt P45481); assay: Immunofluorescence staining of pN-Cad/CTF2-transfected L cells; assay type: cell-based; conditions: compared to non-transfected controls
T1 construct: a process that relies on endogenous CBP and CREB; endogenous in cells; host or cells: L cells transfected with vector or pN-Cad/CTF2
T1 sequence (P45481 whole entry): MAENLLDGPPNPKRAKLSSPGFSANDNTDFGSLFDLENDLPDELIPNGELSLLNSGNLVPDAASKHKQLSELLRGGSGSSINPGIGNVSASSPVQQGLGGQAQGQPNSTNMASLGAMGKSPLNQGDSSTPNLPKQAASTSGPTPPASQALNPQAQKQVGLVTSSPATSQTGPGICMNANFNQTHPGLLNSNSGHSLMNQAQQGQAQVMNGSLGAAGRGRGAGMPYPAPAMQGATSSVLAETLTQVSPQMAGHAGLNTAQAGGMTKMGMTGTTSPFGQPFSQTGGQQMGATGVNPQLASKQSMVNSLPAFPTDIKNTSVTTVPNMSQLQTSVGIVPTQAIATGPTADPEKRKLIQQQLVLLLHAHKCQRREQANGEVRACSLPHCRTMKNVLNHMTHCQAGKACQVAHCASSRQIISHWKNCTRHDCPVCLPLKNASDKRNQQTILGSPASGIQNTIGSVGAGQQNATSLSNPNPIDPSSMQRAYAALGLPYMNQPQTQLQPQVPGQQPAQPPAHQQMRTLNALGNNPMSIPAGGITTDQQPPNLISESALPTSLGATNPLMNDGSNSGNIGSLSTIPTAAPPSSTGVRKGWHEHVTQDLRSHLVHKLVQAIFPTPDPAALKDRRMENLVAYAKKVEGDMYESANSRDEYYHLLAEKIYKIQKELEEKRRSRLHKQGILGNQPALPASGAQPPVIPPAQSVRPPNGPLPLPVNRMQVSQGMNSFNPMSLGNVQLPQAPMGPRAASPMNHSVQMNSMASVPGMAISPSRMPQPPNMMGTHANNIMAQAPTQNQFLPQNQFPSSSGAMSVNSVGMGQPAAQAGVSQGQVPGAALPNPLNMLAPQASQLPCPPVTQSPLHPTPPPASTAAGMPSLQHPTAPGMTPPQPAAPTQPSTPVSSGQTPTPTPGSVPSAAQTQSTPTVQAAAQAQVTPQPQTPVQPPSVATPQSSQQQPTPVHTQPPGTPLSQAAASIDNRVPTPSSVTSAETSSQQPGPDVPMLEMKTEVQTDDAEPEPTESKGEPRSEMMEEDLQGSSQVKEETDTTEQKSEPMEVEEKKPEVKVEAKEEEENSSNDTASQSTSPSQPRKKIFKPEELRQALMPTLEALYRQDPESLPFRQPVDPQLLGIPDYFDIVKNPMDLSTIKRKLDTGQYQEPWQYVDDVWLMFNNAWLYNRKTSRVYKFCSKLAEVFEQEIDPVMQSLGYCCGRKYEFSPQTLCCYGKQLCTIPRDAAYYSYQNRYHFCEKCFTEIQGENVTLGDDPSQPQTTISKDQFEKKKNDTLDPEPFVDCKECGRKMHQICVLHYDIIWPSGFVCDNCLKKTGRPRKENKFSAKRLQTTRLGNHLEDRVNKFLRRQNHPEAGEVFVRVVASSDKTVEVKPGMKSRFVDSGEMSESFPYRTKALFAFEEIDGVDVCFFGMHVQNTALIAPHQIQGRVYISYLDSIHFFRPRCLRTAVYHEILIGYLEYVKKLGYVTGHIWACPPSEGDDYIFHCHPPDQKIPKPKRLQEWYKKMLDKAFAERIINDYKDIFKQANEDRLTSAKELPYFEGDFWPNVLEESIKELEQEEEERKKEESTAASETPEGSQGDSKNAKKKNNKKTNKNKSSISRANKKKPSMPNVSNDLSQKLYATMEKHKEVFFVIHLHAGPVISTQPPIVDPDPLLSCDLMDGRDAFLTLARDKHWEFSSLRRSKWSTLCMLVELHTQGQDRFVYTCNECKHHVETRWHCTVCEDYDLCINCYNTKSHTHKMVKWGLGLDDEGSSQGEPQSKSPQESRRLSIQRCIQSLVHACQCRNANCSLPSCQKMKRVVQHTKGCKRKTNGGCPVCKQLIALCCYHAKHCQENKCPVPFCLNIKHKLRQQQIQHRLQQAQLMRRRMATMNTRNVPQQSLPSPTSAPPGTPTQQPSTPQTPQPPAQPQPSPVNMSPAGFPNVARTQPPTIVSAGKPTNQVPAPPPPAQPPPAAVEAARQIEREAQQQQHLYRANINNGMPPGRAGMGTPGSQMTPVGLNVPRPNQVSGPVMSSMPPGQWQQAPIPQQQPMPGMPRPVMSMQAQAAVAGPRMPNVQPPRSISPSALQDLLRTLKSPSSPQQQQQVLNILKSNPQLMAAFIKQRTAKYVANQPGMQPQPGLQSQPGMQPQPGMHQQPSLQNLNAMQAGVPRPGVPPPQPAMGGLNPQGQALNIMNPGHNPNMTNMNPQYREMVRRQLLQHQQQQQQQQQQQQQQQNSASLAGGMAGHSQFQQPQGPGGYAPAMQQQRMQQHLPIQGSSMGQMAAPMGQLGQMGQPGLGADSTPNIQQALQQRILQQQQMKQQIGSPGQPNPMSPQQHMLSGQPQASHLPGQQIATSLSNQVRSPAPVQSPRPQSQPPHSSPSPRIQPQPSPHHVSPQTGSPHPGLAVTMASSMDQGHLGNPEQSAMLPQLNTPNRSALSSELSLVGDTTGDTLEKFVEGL
Protocol: Immunoprecipitations (IPs), immunoblotting and immunofluorescence. IPs were performed as described by Marambaud et al. (2002) EMBO J. 21: 1948-1956 in 4° C. HEPES buffer (25 mM HEPES, pH 7.4, 150 mM NaCl, 1× Complete protease inhibitor cocktail, Roche) containing 0.5% Nonidet P40 (NP40). For western blot (WB) analysis, cells were solubilized in 4° C. RIPA buffer (50 mM Tris-HCl, pH 8, 150 mM NaCl, 0.1% SDS, 1% NP-40, 0.5% sodium deoxycholate, 1× Complete protease inhibitor cocktail) as described by Marambaud et al. (2002). Immunofluorescence was performed as described by Georgakopoulos et al. (1999) with the following modifications: to visualize nuclei, cells were treated for 5 minutes with 4′,6-diamidino-2-phenylndole (DAPI, 1:5000; Sigma). Fluorescence microscopy and digital image acquisition were carried out using an Axioskop2 microscope (Zeizz).
To determine how N-Cad/CTF2 affects CREB-mediated transcription, the following experiments were performed. L cells transfected either with vector (vector) or pN-Cad/CTF2 (N-Cad/CTF2) plasmids were fractionated into nuclear and cytosolic fractions, and probed on WBs with anti-CBP (FIG. 11A, panel a), anti-N-cadherin (FIG. 11A, panel b), anti-β-tubulin (FIG. 11A, panel c) or anti-phosphorylated CREB (P-CREB; FIG. 11A, panel d) antibodies. […] L cells transiently transfected with pN-Cad/CTF2 were analyzed by immunofluorescence staining. […]

Molecule: CC(C)C[C@H](NC(=O)[C@H](Cc1ccccc1)C[C@@H](O)[C@H](Cc1ccccc1)NC(=O)OC(C)(C)C)C(=O)N[C@@H](Cc1ccccc1)C(N)=O [L-685,458]
- cellular E-Cad/CTF1 (E-cadherin): increased cellular E-Cad/CTF1
- loss of cell surface staining of all epitopes (A431 cells): significantly delayed

B1: N-Cad/CTF2: chicken cytoplasmic domain of N-cadherin (N-Cad/CTF2) inserted into vector pECE, expressed in L cells (protein)
chain: KRRDKERQAKQLLIDPEDDVRDNILKYDEEGGGEEDQDYDLSQLQQPDTVEPDAIKPVGIRRLDERPIHAEPQYPVRSAAPHPGDIGDFINEGLKAADNDPTAPPYDSLLVFDYEGSGSTAGSLSSLNSSSSGGEQDYDYLNDWGPRFKKLADMYGGGDD
- cytoplasmic staining for N-Cad/CTF2 and CBP (CBP): clear cytoplasmic staining for both N-Cad/CTF2 and CBP
